Consider one compound from US12351587B2, “Bicyclic compound as RIP-1 kinase inhibitor and application thereof” (MEDSHINE DISCOVERY INC., priority 2019, dated 2025).

One series addresses T1, RIP1 (Homo sapiens, UniProt Q13546).
T1 construct: purchased Eurofins Pharma Discovery Service
T1 sequence (Q13546 1-671): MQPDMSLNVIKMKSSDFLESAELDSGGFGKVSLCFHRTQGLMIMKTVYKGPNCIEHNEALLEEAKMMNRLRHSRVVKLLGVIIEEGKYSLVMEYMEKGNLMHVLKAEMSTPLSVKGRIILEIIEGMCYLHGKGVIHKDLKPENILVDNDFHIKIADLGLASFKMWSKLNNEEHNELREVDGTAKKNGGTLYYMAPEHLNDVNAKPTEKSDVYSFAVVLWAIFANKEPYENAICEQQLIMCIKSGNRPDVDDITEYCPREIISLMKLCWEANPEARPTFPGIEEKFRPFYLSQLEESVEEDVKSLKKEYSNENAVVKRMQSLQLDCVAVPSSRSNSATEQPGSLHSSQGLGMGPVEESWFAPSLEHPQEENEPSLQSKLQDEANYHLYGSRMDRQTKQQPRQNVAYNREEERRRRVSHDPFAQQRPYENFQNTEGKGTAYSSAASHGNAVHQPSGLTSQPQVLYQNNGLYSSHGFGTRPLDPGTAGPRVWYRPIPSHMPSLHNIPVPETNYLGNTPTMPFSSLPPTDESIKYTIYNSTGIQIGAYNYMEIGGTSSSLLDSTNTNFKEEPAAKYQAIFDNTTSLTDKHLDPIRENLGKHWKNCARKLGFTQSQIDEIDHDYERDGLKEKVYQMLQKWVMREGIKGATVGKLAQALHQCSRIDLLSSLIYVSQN
Nature of the series: Kinase selectivity assay (Eurofins, 33P radiolabeled kinase activity): RIP1. It counts as biochemical. The settings on record: WX009 1 μM, ATP 10 μM, read-out: Inhibition rate. The procedure:
The purpose of this assay was to detect the in vitro inhibitory activity of WX009 on a variety of kinases. The kinases used in this assay included 413 kinases, and the activity detection method was provided by Eurofins Pharma Discovery Service A method of detecting ^33P radiolabeled kinase activity was used for the assay. The concentration of WX009 was 1 μM, and the concentration of ATP was 10 μM.

Series [1] in a line: Pharmacokinetics in C57BL/6 mice. It counts as in vivo. The settings on record: C57BL/6, plasma, mouse. The procedure:
Eight healthy adult C57BL/6 mice (6-9 weeks old, purchased from Shanghai Lingchang Biotechnology Co., Ltd.) were selected, and randomly divided into two groups, 4 mice in each group (n=2, cross blood sampling). One group was given 0.5 mg/kg of the assay compound by intravenous injection, and the other group was given 1 mg/kg of the assay compound by gavage. Plasma samples were collected respectively from animals in the intravenous group and gavage group at 0.083, 0.25, 0.5, 1.0, 2.0, 4.0, 6.0, 8.0, 24 hours after administration. The blood concentration was determined by LC-MS/MS method. Relevant pharmacokinetic parameters were calculated by WinNonlin™ Version 6.3 (Pharsight, Mountain View, CA) pharmacokinetic software using non-compartmental model and linear logarithmic trapezoidal method. AUC0-last represents the area under the plasma concentration-time curve from zero time point to the last detectable concentration time point; Cmax represents the peak concentration; Tmax represents the time to reach the peak; T1/2 represents the half-life. CL represents the clearance rate; Tlast represents the last quantifiable time point; p.o. represents per os; i.v. represents intravenous injection; and F % represents oral bioavailability.

A short description of series [2]: Plasma protein binding rate (PPB), human plasma. The series is classed as in vitro ADME. The settings on record: 2 μM, dialysis 4 hours 37° C. Here is the method: 796 μL of bank plasma from humans, SD rats and CD-1 mice (plasma purchased from BioreclamationIVT) were weighed, and the assay compound working solution or warfarin working solution was added so that the final concentration of the assay compound and warfarin in the plasma sample was 2 μM. The samples were mixed thoroughly. The final concentration of DMSO in the organic phase was 0.5%, 50 μL of plasma samples of the assay compound and warfarin were pipetted to a sample receiving plate, and the corresponding volume of the corresponding blank plasma or buffer was added immediately, so that the final volume in each sample well was 100 μL, wherein the volume ratio of plasma:dialysis buffer was 1:1. Stop solution was then added to these samples. These samples were used as T0 samples for determination of recovery and stability. The plasma samples of the assay compound and warfarin were added to the dosing end of each dialysis well, and blank dialysis buffer was added to the corresponding receiving end of the dialysis well. […] All samples were subjected to protein precipitation, and then analyzed by LC/MS/MS. Unbound rate (% Unbound), bound rate (% Bound), and recovery rate (% Recovery) of the compound were calculated using the following formulae: % Unbound=100*FC/TC, % Bond=100−% Unbound, and % Recovery=100*[…]/T0, […]

As for `CN1C(=S)[C@@H](NC(=O)c2ncn(Cc3ccccc3)n2)COc2cccnc21` [WX009], the inhibition (commonly the relative decrease from the control value, in per cent) at 1 µM on RIP1 is greater than 80%. Also, in series [1] (iv, i.v. 0.5 mg/kg), the AUC(0-t) (usually exposure summed from dosing to a finite time, without extrapolation to infinity) stood at 2.21 µM·h; the clearance – broadly, the volume of plasma or blood freed of the substance per unit of time – was determined as 9.4 mL/min/kg; the half-life – broadly, the time in which the quantity being followed falls by half – was 84 min. Besides, the Vd in series [1] (iv, i.v. 0.5 mg/kg, read-out: Vdss) was 1.1 L/kg. In addition, in series [1] (oral, p.o. 1 mg/kg vs i.v. 0.5 mg/kg), the bioavailability (commonly dose-corrected exposure relative to a reference, in per cent) stood at 89.1%. Moreover, in series [1] (po, p.o. 1 mg/kg), the AUC(0-t) was determined as 3.85 µM·h; the highest level (Cmax) was 1500 nM; the Tmax (as a rule, the time from dosing to the highest level) is 30 min. In series [2], this compound showed a PPB_Unbound of 5.7%.
